Test results: patent publication US20050004007A1, “Promotion of adoptosis in cancer cells by co-administration of cyclin dependent kinase inhibitiors and cellular differentiation agents” (priority 2000, published 2005)

Experiments:
U937 cells [1] = assay: cytochrome c release into the cytosol; type: cell-based, human; details: FP 100 nM; for cytochrome c release: SB 1 mM, alone from 1 hr, both drugs ≧6 hr
Description: Cytochrome c release. The assay for cytochrome c release was performed as previously described by Single et al. [1998] with modifications. At designated times following drug treatment, 4×10^6 cells were washed with PBS and resuspended in 50 μl of assay buffer (75 mM NaCl, 1 mM NaH2P0^4, 8 mM Na2HP0^4, 1 mM EDTA, 250 mM sucrose) containing digitonin (700 μg/ml). Three minutes following addition of digitonin assay buffer, cells were pelleted by centrifugation. The supernatants were transferred to tubes containing 2× Laemmli buffer (50 μl) and boiled for 5 minutes. Proteins were separated by SDS-PAGE as described above.
Analysis of cytosolic cytochrome c. A previously described technique was employed.^32 After treatment, cells (5×10^7/condition) were harvested by centrifugation at 600 g for 10 min at 4° C. The S-100, or cytosolic fraction, was prepared as described with minor modifications. Cell pellets were washed once with ice-cold phosphate-buffered saline and resuspended in five volumes of buffer A (20 mM Hepes-KOH, pH 7.5, 10 mM KCl, 1.5 mM MgCl2, 1 mM sodium EDTA, 1 mM sodium EGTA, 1 mM dithiothreitol, 0.1 mM phenylmethlysufonyl fluoride, and 250 mM sucrose; all Sigma. After chilling for 30 min on ice, the cells were disrupted by 15 strokes of a Potter-Elvehjem (PTFE-pestle) homogenizer. The homogenate was then centrifuged twice to remove unbroken cells and nuclei (3000 g for 10 min at 4° C.). The resulting supernatant was further centrifuged at 100,000 g for 1 h at 4° C., and the supernatants, designated as S-100 fractions, were immediately subjected to Western analysis as described above. For each condition, 25 μg of the S-100 fraction was loaded on the gel, and probed with the corresponding antibody.

U937 cells [2] = assay: cell cycle analysis (propidium iodide, flow cytometry); type: cell-based, human
Description: Cell Cycle Analysis. Following drug treatment, cells were pelleted by centrifugation at 500 g×6 min, and resuspended in 70% ethanol. The cells were incubated on ice for at least 1 h and resuspended in 1 ml cell cycle buffer (0.38 mM Na-Citrate, 0.5 mg/ml RNase A, and 0.01 mg/ml propidium iodide) at a concentration of 10×10^5 cells/ml, stored in the dark at 4 C until analysis (24 h), using a Becton-Dickinson FACScan flow cytometer and Verity Winlist software (Verity Software, Topsham, Me.).

Mcl-1 = assay: Western analysis of Mcl-1 in U937 cells; type: cell-based, human; details: 100 nM FP, 1 mM SB, 12 and 24 hours
Description: Alternatively, whole cell-pellets were washed twice in PBS, resuspended in PBS, and lysed by the addition of I volume of loading buffer. Lysates were boiled for 10 min, centrifuged at 12,800 g for 5 min and quantified using Coomassie protein assay reagent (Pierce, Rockfold, Ill.). 25 μg of total proteins per point were separated by SDS-PAGE and electro-blotted to nitrocellulose. The blots were blocked in 5% non-fat milk in PBS-T and probed for 1 h with the appropriate dilution of primary antibody. Blots were washed 3×10 min in PBS-T and then incubated with a 1:2000 dilution of peroxidase-conjugated secondary antibody for 1 h at room temperature. Blots were again washed 3×10 min in PBS-T and then developed by enhanced chemiluminesence. Where indicated, blots were stripped and re-probed with antibodies directed against actin. […]

[3] = system: U937 myelomonocytic human leukemia cells; assay: percent cell death; type: cell-based; details: 1 μM SAHA, 100 nM FP, 24 hours after administration
[4] = system: HL60 human leukemia cells; assay: loss of mitochondrial membrane potential (DiOC6 uptake); type: cell-based; details: 3, 5, or 10 μM ATRA and 80 nM FP
Description: Assessment of mitochondrial membrane potential. At designated times, 1 ml aliquots of cells (2×10^5) were harvested and incubated with 40 nM DiOC6 for 15 minutes at 25° C. as previously described [Zamzami et al 1995]or at 37° C. Samples were analyzed using a Becton Dickinson FACScan flow cytometer (excitation λ=488 nm; emission λ=525 nm). […] Data acquisition and analysis was performed using […] Software (Becton Dickinson, Mansfield, Mass.).

Structure (SMILES) | cytochrome c release (U937 cells [1]) | percentage of cells arresting in G0/G1 (U937 cells [2]; 24 h, 1 mM SB) | percentage of cells arresting in G0/G1 (U937 cells [2]; 48 h, 1 mM SB or 100 nM FP) | levels of Mcl-1 (Mcl-1) | release of cytochrome c into the cytosol (U937 cells [1]; PMA 10 nM, 6 h) | cell cycle distribution (U937 cells [2]; 24 h after administration of SAHA, FP or both) | cell death [3] | loss of mitochondrial membrane potential (Δψm) [4]
CCCC(=O)[O-].[Na+] [SB, sodium butyrate] | increased modestly | 48.1% | 81.6% | minimal effects | – | – | – | –
CN1CC[C@H](c2c(O)cc(O)c3c(=O)cc(-c4ccccc4Cl)oc23)[C@H](O)C1 [FP, Flavopiridol] | increased modestly | – | ~53% | reductions in levels of Mcl-1 | some effect | increase in the G0/G1 population | modest level of cell death | no effect
